Laboratory results as given in US8980911B2, “Heterocyclic compounds as protein kinase inhibitors” (Daiichi Sankyo Company, Limited, priority 2011, dated 2015).

Experiments:
Assay type in all cases: biochemical
JAK1 = target: T1, JAK1 (Homo sapiens, UniProt P23458); experiment: In vitro enzyme assay (cell-free HTRF kinase assay), JAK1; conditions: catalytic domain aa 850-1154, GST-tag; ATP 60 μM, SRCtide 400 nM, reaction 120 min
T1 construct: JAK1 (aa 850-1154) and TYK2 (aa 871-1187) are expressed with an N-terminally fused GST-tag; GST (N); purchased Carna Bioscience, Inc; host or cells: baculovirus expression system
T1 sequence (P23458 850-1154): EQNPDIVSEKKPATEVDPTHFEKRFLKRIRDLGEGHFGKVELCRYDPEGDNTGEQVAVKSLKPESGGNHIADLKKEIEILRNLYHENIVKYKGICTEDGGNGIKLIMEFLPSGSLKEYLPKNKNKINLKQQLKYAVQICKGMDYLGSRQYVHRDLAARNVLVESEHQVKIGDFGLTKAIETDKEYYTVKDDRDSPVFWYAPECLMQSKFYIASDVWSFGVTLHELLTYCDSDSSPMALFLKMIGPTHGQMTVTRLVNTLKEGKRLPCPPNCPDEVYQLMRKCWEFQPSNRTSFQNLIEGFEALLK
Procedure: (§1) Kinase buffer [50 mM HEPES (pH 7.5), 1 mM EGTA, 10 mM MgCl2, 2 mM DTT and 0.01% Tween-20) was prepared and dilutions of a compound of formula (I) and other reagents were subsequently made in it. Two times concentrated compound of formula (I) solution: A compound of formula (I) was diluted to 100-fold final concentration in DMSO, followed by 50-fold dilution with Kinase buffer (1% DMSO final concentration). Four times concentrated Substrate/ATP mix solution: Biotin-SRCtide and ATP were diluted to 4-fold final concentration in Kinase buffer. Biotin-SRCtide solution (purchased from Anaspec) was mixed with ATP solution (1:1). Four times concentrated Enzyme solution: JAK1 or JAK2 or JAK3 or TYK2 enzyme [Human baculo virus expressed JAK1, JAK2, JAK3 and TYK2 were purchased from Carna Bioscience, Inc. All enzymes only contain the catalytic domain. JAK1 (aa 850-1154) and TYK2 (aa 871-1187) are expressed with an N-terminally fused GST-tag, and JAK2 and JAK3 with an N-terminally fused His-tag] was diluted to 4-fold final concentration in Kinase buffer and always kept on ice. Detection buffer: LANCE detection buffer (10 times concentrated) was diluted 10-fold in H2O. Four times concentrated stop solution: EDTA was diluted to a concentration of 40 mM in detection buffer. Four times concentrated ULight/Eu-antibody (from Perkin Elmer) mix solution: ULight-Streptavidin was diluted to a concentration of 100 nM (25 ng/mL final concentrations) and Eu-anti-phospho-Tyrosine (PT66) (from Perkin Elmer) was diluted to a concentration of 8 nM (2 ng/mL final concentration) in detection buffer.
(§2) Cell-free in vitro kinase assay was performed in 384 well plates. Two times concentrated compound solution (5 μL) was pipetted into a HTS 384SV Small Volume Plate. Four times concentrated Substrate/ATP mix (2.5 μL) solution was added along with 4 times concentrated Enzyme solution (2.5 μL). Plate was covered with TopSeal-A and incubated at room temperature for indicated time (Table 3). Four times concentrated Stop solution (5 μL, 10 mM final concentration) was added and incubated for 5 minutes at room temperature. Four times concentrated ULight/Eu-antibody mix solution (5 μL) was added and again plate was covered with TopSeal and incubated overnight at 4° C. TopSeal was removed and HTRF signal was measured at 615 nm and […] (excitation at 320 or 340 nm) on Tecan M1000 Multi mode plate reader. Ratio (665 nm/615 nm)×10^4 was calculated and IC50 values were deduced from Graph-pad prism 4.2.

JAK2 = target: T2, JAK2 (Homo sapiens, UniProt O60674); experiment: In vitro enzyme assay (cell-free HTRF kinase assay), JAK2; conditions: catalytic domain, His-tag; ATP 10 μM, SRCtide 25 nM, reaction 30 min
T2 construct: All enzymes only contain the catalytic domain; His (N); purchased Carna Bioscience, Inc; host or cells: baculovirus expression system
T2 sequence (O60674 849-1124 limits assumed): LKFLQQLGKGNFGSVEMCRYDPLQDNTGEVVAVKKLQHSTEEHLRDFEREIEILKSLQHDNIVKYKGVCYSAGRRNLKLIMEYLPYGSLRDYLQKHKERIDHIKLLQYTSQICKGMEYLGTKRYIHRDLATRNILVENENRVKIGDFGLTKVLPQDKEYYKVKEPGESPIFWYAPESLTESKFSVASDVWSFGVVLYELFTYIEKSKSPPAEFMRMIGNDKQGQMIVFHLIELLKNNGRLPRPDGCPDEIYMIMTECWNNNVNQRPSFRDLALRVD
Procedure: as §1, §2

JAK3 = target: T3, JAK3 (Homo sapiens, UniProt P52333); experiment: In vitro enzyme assay (cell-free HTRF kinase assay), JAK3; conditions: catalytic domain, His-tag; ATP 3 μM, SRCtide 100 nM, reaction 30 min
T3 construct: All enzymes only contain the catalytic domain; His (N); purchased Carna Bioscience, Inc; host or cells: baculovirus expression system
T3 sequence (P52333 822-1111 limits assumed): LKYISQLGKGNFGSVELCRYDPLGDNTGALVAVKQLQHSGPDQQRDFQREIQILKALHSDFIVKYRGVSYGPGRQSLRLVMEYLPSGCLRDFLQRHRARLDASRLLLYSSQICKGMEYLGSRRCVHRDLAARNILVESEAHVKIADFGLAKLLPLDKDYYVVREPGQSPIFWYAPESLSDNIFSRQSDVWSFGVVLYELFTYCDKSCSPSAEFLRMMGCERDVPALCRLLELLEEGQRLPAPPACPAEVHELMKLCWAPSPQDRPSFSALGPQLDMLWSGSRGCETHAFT
Procedure: as §1, §2

SMILES	IC50 (JAK1)	IC50 (JAK2)	IC50 (JAK3)
N#Cc1cc(Cl)c(C(=O)c2c[nH]c3c(NC(=O)C4CC4)nccc23)c(Cl)c1 [Compound No. 39, N-[3-(2,6-Dichloro-4-cyanobenzoyl)-1H-pyrrolo[2,3-c]pyridin-7-yl]cyclopropanecarboxamide]	< 500 nM	< 50 nM	< 50 nM
CC(=O)Nc1nccc2c(C(=O)c3c(Cl)cc(C(=O)NCCN4CCCCC4)cc3Cl)c[nH]c12 [Compound No. 42, 4-{[7-(Acetylamino)-1H-pyrrolo[2,3-c]pyridin-3-yl]carbonyl}-3,5-dichloro-N-[2-(piperidin-1-yl)ethyl]benzamide]	< 1000 nM	< 1000 nM	< 1000 nM
CC(=O)Nc1nccc2c(C(=O)c3c(Cl)cc(C(=O)NCCN4CCCC4)cc3Cl)c[nH]c12 [Compound No. 44, 4-{[7-(Acetylamino)-1H-pyrrolo[2,3-c]pyridin-3-yl]carbonyl}-3,5-dichloro-N-[2-(pyrrolidin-1-yl)ethyl]benzamide]	< 1000 nM	< 1000 nM	< 1000 nM
O=C(c1c(Cl)cc(-c2cncnc2)cc1Cl)c1c[nH]c2c(NC(=O)C3CC3)nccc12 [Compound No. 47, N-{3-[2,6-Dichloro-4-(pyrimidin-5-yl)benzoyl]-1H-pyrrolo[2,3-c]pyridin-7-yl}cyclopropanecarboxamide]	< 1000 nM	< 100 nM	< 100 nM
N#Cc1cc(F)c(C(=O)c2c[nH]c3c(NC(=O)C4CC4)nccc23)c(F)c1 [Compound No. 51, N-[3-(4-Cyano-2,6-difluorobenzoyl)-1H-pyrrolo[2,3-c]pyridin-7-yl]cyclopropanecarboxamide]	< 500 nM	< 100 nM	< 50 nM
O=C(NC1CC1)c1cc(Cl)c(C(=O)c2c[nH]c3c(NC(=O)C4CC4)nccc23)c(Cl)c1 [Compound No. 54, 3,5-Dichloro-N-cyclopropyl-4-({7-[(cyclopropylcarbonyl)amino]-1H-pyrrolo[2,3-c]pyridin-3-yl}carbonyl)benzamide]	< 500 nM	< 500 nM	< 500 nM
O=C(NCC1CC1)c1cc(Cl)c(C(=O)c2c[nH]c3c(NC(=O)C4CC4)nccc23)c(Cl)c1 [Compound No. 55, 3,5-Dichloro-4-({7-[(cyclopropylcarbonyl)amino]-1H-pyrrolo[2,3-c]pyridin-3-yl}carbonyl)-N-(cyclopropylmethyl)benzamide]	< 500 nM	< 500 nM	< 500 nM
CCOCCCNC(=O)c1cc(Cl)c(C(=O)c2c[nH]c3c(NC(=O)C4CC4)nccc23)c(Cl)c1 [Compound No. 56, 3,5-Dichloro-4-({7-[(cyclopropylcarbonyl)amino]-1H-pyrrolo[2,3-c]pyridin-3-yl}carbonyl)-N-(3-ethoxypropyl)benzamide]	< 500 nM	< 500 nM	< 500 nM
O=C(c1c(Cl)cc(CO)cc1Cl)c1c[nH]c2c(NC(=O)C3CC3)nccc12 [Compound No. 58, N-{3-[2,6-Dichloro-4-(hydroxymethyl)benzoyl]-1H-pyrrolo[2,3-c]pyridin-7-yl}cyclopropanecarboxamide]	< 1000 nM	< 1000 nM	< 1000 nM
O=C(NCCF)c1cc(F)c(C(=O)c2c[nH]c3c(NC(=O)C4CC4)nccc23)c(F)c1 [Compound No. 59, 4-({7-[(Cyclopropylcarbonyl)amino]-1H-pyrrolo[2,3-c]pyridin-3-yl}carbonyl)-3,5-difluoro-N-(2-fluoroethyl)benzamide]	< 500 nM	< 500 nM	< 500 nM
CCNC(=O)c1cc(F)c(C(=O)c2c[nH]c3c(NC(=O)C4CC4)nccc23)c(F)c1 [Compound No. 60, 4-({7-[(Cyclopropylcarbonyl)amino]-1H-pyrrolo[2,3-c]pyridin-3-yl}carbonyl)-N-ethyl-3,5-difluorobenzamide]	< 500 nM	< 1000 nM	< 500 nM
CNC(=O)c1cc(F)c(C(=O)c2c[nH]c3c(NC(=O)C4CC4)nccc23)c(F)c1 [Compound No. 61, 4-({7-[(Cyclopropylcarbonyl)amino]-1H-pyrrolo[2,3-c]pyridin-3-yl}carbonyl)-3,5-difluoro-N-methylbenzamide]	< 1000 nM	< 500 nM	< 500 nM
O=C(NCCCO)c1cc(F)c(C(=O)c2c[nH]c3c(NC(=O)C4CC4)nccc23)c(F)c1 [Compound No. 62, 4-({7-[(Cyclopropylcarbonyl)amino]-1H-pyrrolo[2,3-c]pyridin-3-yl}carbonyl)-3,5-difluoro-N-(3-hydroxypropyl)benzamide]	< 1000 nM	< 500 nM	< 500 nM
CN(C)CCNC(=O)c1cc(F)c(C(=O)c2c[nH]c3c(NC(=O)C4CC4)nccc23)c(F)c1 [Compound No. 63, 4-({7-[(Cyclopropylcarbonyl)amino]-1H-pyrrolo[2,3-c]pyridin-3-yl}carbonyl)-N-[2-(dimethylamino)ethyl]-3,5-difluorobenzamide]	< 500 nM	< 500 nM	< 500 nM
CCOCCCNC(=O)c1cc(F)c(C(=O)c2c[nH]c3c(NC(=O)C4CC4)nccc23)c(F)c1 [Compound No. 64, 4-({7-[(Cyclopropylcarbonyl)amino]-1H-pyrrolo[2,3-c]pyridin-3-yl}carbonyl)-N-(3-ethoxypropyl)-3,5-difluorobenzamide]	< 500 nM	< 1000 nM	< 1000 nM
CNCc1cc(Cl)c(C(=O)c2c[nH]c3c(NC(=O)C4CC4)nccc23)c(Cl)c1 [Compound No. 66, N-(3-{2,6-Dichloro-4-[(methylamino)methyl]benzoyl}-1H-pyrrolo[2,3-c]pyridin-7-yl)cyclopropanecarboxamide]	< 100 nM	< 100 nM	< 50 nM
CCNCc1cc(Cl)c(C(=O)c2c[nH]c3c(NC(=O)C4CC4)nccc23)c(Cl)c1 [Compound No. 67, N-(3-{2,6-Dichloro-4-[(ethylamino)methyl]benzoyl}-1H-pyrrolo[2,3-c]pyridin-7-yl)cyclopropanecarboxamide]	< 100 nM	< 500 nM	< 100 nM
O=C(Nc1nccc2c1ccn2C(=O)c1c(Cl)cccc1Cl)C1CC1 [Compound No. 77, N-[1-(2,6-Dichlorobenzoyl)-1H-pyrrolo[3,2-c]pyridin-4-yl]cyclopropanecarboxamide]	< 1000 nM	< 500 nM	< 500 nM
N#Cc1cc(Cl)c(C(=O)n2ccc3c(NC(=O)C4CC4)nccc32)c(Cl)c1 [Compound No. 86, N-[1-(2,6-Dichloro-4-cyanobenzoyl)-1H-pyrrolo[3,2-c]pyridin-4-yl]cyclopropanecarboxamide]	< 1000 nM	< 500 nM	< 500 nM
Cc1noc(C)c1-c1cc(Cl)c(C(=O)n2ccc3c(NC(=O)C4CC4)nccc32)c(Cl)c1 [Compound No. 87, N-{1-[2,6-Dichloro-4-(3,5-dimethyl-1,2-oxazol-4-yl)benzoyl]-1H-pyrrolo[3,2-c]pyridin-4-yl}cyclopropanecarboxamide]	< 500 nM	< 100 nM	< 1000 nM
O=C(Nc1nccc2c1ccn2C(=O)c1c(Cl)cc(-c2cncnc2)cc1Cl)C1CC1 [Compound No. 89, N-{1-[2,6-Dichloro-4-(pyrimidin-5-yl)benzoyl]-1H-pyrrolo[3,2-c]pyridin-4-yl}cyclopropanecarboxamide]	< 1000 nM	< 50 nM	< 500 nM
CCNC(=O)c1cc(Cl)c(C(=O)n2ccc3c(NC(=O)C4CC4)nccc32)c(Cl)c1 [Compound No. 93, 3,5-Dichloro-4-({4-[(cyclopropylcarbonyl)amino]-1H-pyrrolo[3,2-c]pyridin-1-yl}carbonyl)-N-ethylbenzamide]	< 500 nM	< 1000 nM	< 1000 nM
N#Cc1cc(Cl)c(C(=O)n2ccc3cnccc32)c(Cl)c1 [Compound No. 95, 3,5-Dichloro-4-(1H-pyrrolo[3,2-c]pyridin-1-ylcarbonyl)benzonitrile]	< 1000 nM	< 500 nM	< 500 nM
